Data set [1] has as its system HEK293T (human embryonic kidney cells). Kind of data set: MTT cell viability assay, HEK293T. Format: cell-based. The note with it: for cytotoxic effect in HEK293T: 48 h; for IC50: 48 h exposure, mean ± SD. The method, then:
In this report, cell viability tests were conducted in HEK293T and HeLa cancer cells by means of the colorimetric 3-(4,5-dimethylthiazol-2-yl)-2,5-diphenyl tetrazolium bromide (MTT) assay after exposure for 48 h. A HeLa cancer cell line was selected since it is widely used in cytotoxicity studies. For all complexes, a 10 mM stock solution in DMSO (H2O for cisplatin) was prepared and diluted appropriately to reach the final concentration reported in the Materials and Methods. The non-cancerous HEK293T cell line was used for comparison. The IC50 values of the first-row metal complexes, the pqx ligand and cisplatin, presented herein were calculated using a dose-response model, which was obtained from sigmoidal fitting of dose-response curves.
The HEK293T cell line (immortalized human embryonic kidney cells) was obtained from the Biomedical Research Foundation Academy of Athens (BRFAA), Athens, Greece and the HeLa cell line (cervical cancer cells) was obtained from the National Centre For Scientific Research Demokritos (NCSR Demokritos), Athens, Greece.
Pqx metal complexes were diluted in stock solutions of 10 mM in dimethyl sulfoxide (DMSO). A similar concentration of cisplatin dissolved in H2O was used. HEK293T and HeLa cells were cultured in Dulbecco’s modified Eagle’s medium (DMEM) with high glucose (Biosera, Nuaille, France) supplemented with 10% fetal bovine serum at 37 °C and 5% CO2. Cells were seeded in sterile tissue culture 96-well plates (SPL Life Science, Pochon, Republic of Korea) at a density of 3000 cells per well. After 24 h, the medium was removed and replaced with fresh media containing various concentrations (0.01 μΜ, 0.1 μΜ, 1 μΜ, 10 μΜ, 25 μΜ, 40 μΜ, 55 μΜ, 70 μΜ, 85 μΜ and 100 μΜ) of the compounds to be tested and was further incubated for 48 h at 37 °C. Dimethyl sulfoxide (DMSO) was used as a vehicle at ≤1%. To measure cytotoxicity, a culture medium containing the compounds (or DMSO) was removed, and 100 μL of 0.5 mg/mL MTT reagent (Applichem, Darmstadt, Germany) diluted in DMEM was added to the cells for 3 h at 37 °C. After 3 h incubation in identical conditions, MTT was removed and 200 μL of DMSO was added. Absorbance values of formazan were measured at 540 nm using a BioTek Synergy H1 microplate reader (Agilent, Santa Clara, CA, USA). All compounds were tested in triplicate. The results were statistically analyzed using the nonlinear regression by GraphPad PRISM (Version 9).
On the technique in general: Formazan colour is commonly taken as a measure of viable cells.

Data set [2] has as its system PAF-induced aggregation in washed rabbit platelets (WRPs). Kind of data set: Inhibition of PAF-induced aggregation in washed rabbit platelets. Format: cell-based. The note with it: for IC50: washed rabbit platelets, mean ± SD, read-out: IC50 (μM) towards PAF in WRPs. The method, then: The biological experiments of PAF-induced platelet aggregation as well as the evaluation of the inhibitory effect of its synthetic compounds were performed according to thoroughly described protocols. […] Briefly, in order to obtain the washed rabbit platelets (WRPs), platelet-rich plasma was washed on Ficoll–Paque cushions and adjusted to […] platelets/mL of Tyrode’s buffer, pH 7.2. The dilution of PAF was prepared using pyrogen-free 0.15 M NaCl containing 2.5 mg/mL of crystallized bovine serum albumin, required for dispersion of PAF. The compounds under investigation were firstly dissolved in the appropriate solvent that is: DMSO for pqx (0.010 M), H2O for CrCl3 × 3H2O (0.016 M), H2O for MnCl2 × 4H2O (0.004 M), DMSO-EtOH (4/1, v/v)) for FeCl2 × 4H2O (0.014 M), H2O for CoCl2 × 6H2O (0.010 M), H2O for NiCl2 × 6H2O (0.010 M), H2O for CuCl2 × 2H2O (0.008 M), H2O for ZnCl2 (0.013 M), DMSO for 1 (0.017 M), DMSO for 2 (0.010 M0, DMSO for 3 (0.004 M), DMSO for 4 (0.002 M), DMSO for 5 (0.003 M), DMSO-EtOH-H2O (25/1/1, v/v)) for 6 (0.006 M), DMSO for 7 (0.002 M) and aliquots of these solutions were then added in solutions (2.5 mg BSA/mL) of saline.
The experiment on the inhibitory effect of each compound of interest against the washed rabbit platelets (WRPs) aggregation was carried out as per the already described method. The platelets were from male New Zealand white rabbits (about 20), individually housed in stainless steel cages in an air-conditioned room (19 ± 1 °C, 55 ± 5% humidity on a 12/12 h artificial light/dark cycle). Blood samples were drawn from the main ear artery. Microliters of PAF in a final concentration of about 10^–10 M were added to the cuvette of the aggregometer, and the height of the platelet aggregation was monitored. The platelet aggregation induced by PAF, or thrombin was measured before (considered as 0% inhibition) and after the addition of various concentrations of the examined sample, creating a linear curve of percentage inhibition (ranging from 0 to 100%) versus different concentrations of the sample. From this curve, the concentration of the sample that inhibited 50% PAF-induced aggregation was calculated, and this value was defined as IC50 (Inhibitory concentration for 50% Inhibition). Dithiothreitol-insensitive PAF choline phosphotransferase, lyso-PAF:acetyl-CoA acetyltransferase and PAF-acetylhydrolase activity assays were performed on the homogenates of rabbit leukocytes while the activity of lipoprotein-associated phospholipase A2 was assessed on plasma as previously described. The experiments were performed in a model 400 vs. aggregometer of Chrono-Log (Havertown, PA, USA) coupled to a Chrono-Log recorder at 37 °C with constant stirring at 1200 rpm. The separation of platelets was performed with centrifugations in a 3L-R Heraeus Labofuge (Hvanau, Germany), a 400R Heraeus Labofuge and an RC-5B Sorvall (Newtown, CT, USA) refrigerated super speed centrifuge. Bovine serum albumin (BSA), PAF and analytical solvents for the biological assays were purchased from Sigma. […] The measurements were performed in duplicates for each sample concentration in three different WRP preparations, in order to ensure reproducibility. All experiments were also followed by appropriate control tests of the solvent used (saline solution of BSA, DMSO aliquots in a saline solution of BSA-2.5 mg BSA/mL saline- or just in saline), in WRPs. In the aggregometer cuvette (250 to 500 μL) the overall amount of added DMSO, contained in the solution of the sample under study, is not higher than 2–3 μL. All results were expressed as mean ± standard deviation (SD). The t-test was employed to assess differences among the IC50 values of each metal complex against either the PAF- or thrombin-induced aggregation. Differences were statistically significant when the statistical p-value was smaller than 0.05.

On to mer-[Cr(pqx)Cl3(H2O)] [Complex 1], for which the “cytotoxic effect in HEK293T” value in data set [1] was “negligible cytotoxic effects”. Also, the IC50 (commonly the concentration at which inhibition is half-maximal) in data set [1] came to 99 ± 6.16 µM; in data set [2] it was 4.5 ± 0.9 µM. Moreover, the “fold more potent against PAF as opposed to thrombin-induced aggregation” value in data set [2] (ratio of thrombin and PAF IC50) is roughly 12 fold.
As to [Ni(pqx)Cl2]2 [Complex 7], the IC50 came to 25.5 ± 8.61 µM in data set [1] and 6.83 ± 0.42 µM in data set [2].
As for `CS(C)=O.[Cl][Cu][Cl].c1ccc(-c2cnc3ccccc3n2)nc1` [Complex 3, [Cu(pqx)Cl2(DMSO)]], the values for the IC50 in data set [1] and in data set [2] were 2.1 ± 0.52 µM and 10.6 ± 1.4 µM, respectively.
As to [Mn(pqx)(H2O)2Cl2]2 [Complex 5], the values for the half-maximal inhibitory concentration (IC50) in data set [1] and in data set [2] were 28.8 ± 6.16 µM and 39 ± 6 µM, respectively.
As to [Co(pqx)Cl2(DMF)] [Complex 2], the results for the IC50 in data set [1] and in data set [2] were 67 ± 12.6 µM and 4.1 ± 0.6 µM, respectively.
In the case of [Fe(pqx)Cl2]2 [Complex 6], the half-maximal inhibitory concentration (IC50) in data set [1] was found to be 65.8 ± 13.2 µM; in data set [2] it was 1.79 ± 0.12 µM.
As for `[Cl][Zn][Cl].c1ccc(-c2cnc3ccccc3n2)nc1` [Complex 4, [Zn(pqx)Cl2]], in data set [1], the “cytotoxic effect in HEK293T” value is given as “negligible cytotoxic effects” and the 50% inhibitory concentration (IC50) amounted to 94.9 ± 23.2 µM. Also, the 50% inhibitory concentration (IC50) in data set [2] is 3.3 ± 0.3 µM.

For the origin of these results see article PMC10574351, “First-Row Transition Metal Complexes Incorporating the 2-(2′-pyridyl)quinoxaline Ligand (pqx), as Potent Inflammatory Mediators: Cytotoxic Properties and Biological Activities against the Platelet-Activating Factor (PAF) and Thrombin” (Molecules, 2023).
